Publication PMC7305224, “Mutually stabilizing interactions between proto-peptides and RNA” (Nature Communications, 2020)
Entries after “also recorded” stand apart in the source; their conditions may differ. Non-standard residues stand in square brackets, D forms with d. Residues, ends and D or L forms follow the SMILES beside them. Dab = NCC[C@H](N)C(=O)O

Tests used:
Format in all cases: binding
RNA duplex 1 = experiment: CD analysis of RNA duplex with peptides/depsipeptides; settings: RNA duplex 5 µM, peptide/depsipeptide 0–10 µM, MES-TEA buffer (60 mM)
Text: The gel was cropped at the edges for clarity. […] […] Red and blue colors of the filled circles correspond to curves of the same color in panel (c). […] […] Scans were from 320 nm to 220 nm with a bandwidth of 5 nm, data pitch of 0.2 nm, and scan rate of 50 nm/min with three accumulations. […] Data were collected in independent triplicates and the data were averaged. Finally, data were smoothed and plotted using Matlab.

[1] = tested on: RNA duplex 1 (5′-rCrGrCrUrArArArUrCrG-3′ & 5′-rCrGrArUrUrUrArGrCrG-3′); experiment: RNA thermal denaturation (Tm) by UV hyperchromicity at 260 nm with synthetic peptides/depsipeptides, RNA duplex 1; settings: 100 mM NaCl; for RNA duplex 1 Tm: observed Tm with peptide/depsipeptide 100 µM, mean ± SD of 2-4 independent experiments; for RNA duplex 1 ΔTm: peptide/depsipeptide 100 μM, RNA 2.5 μM each strand, mean of 2–4 replicates
Protocol: Each sample contained RNA duplex 1 (5′-rCrGrCrUrArArArUrCrG-3′ and 5′-rCrGrArUrUrUrArGrCrG-3′, 2.5 μM strand) and peptide/depsipeptide (100 μM) in buffered solution (10 mM phosphate, 100 mM NaCl, pH 7.0 or 10 mM acetate, 100 mM NaCl, pH 5.0). a Structures of depsipeptides used to systematically characterize cationic side chain effects on RNA duplex stability. Lactic acid residues are highlighted. Ac acetyl, Aba acetamidobenzoic acid, which was appended to the N-terminus to increase UV absorbance. b Structures of the Fmoc-didepsipeptide building blocks used for solid-phase synthesis of depsipeptide sequences. Fmoc fluorenylmethoxycarbonyl. c Comparative effects of oligo-didepsipeptide sequences 2–6 and analogous oligo-dipeptide and on the Tm of the RNA duplex (number of independent measurements: n = 3 for Arg and Lys sequences; n = 2 for His and Dab sequences; n = 4 for Orn sequences). The shaded areas correspond to the mean ± SD Tm measured for the RNA duplex alone (n = 16 independent measurements). Data are shown as a scatter plot with mean ± SD. d Comparative effects on RNA duplex Tm of depsipeptide sequences containing a single backbone ester (number of independent measurements: n = 3 for Arg; n = 2 for His, Orn, and Dab; n = 4 for Lys), relative to RNA duplex alone (n = 16 independent measurements). Data are shown as a scatter plot with mean ± SD. e To assess the impact of different cationic side chains on depsipeptide degradation rates, depsipeptides 7–11 (40 μM) were incubated at 37 °C in buffer (100 mM HEPES, 10 mM NaCl, pH 7.3). After 5 min, the reactions were quenched by the addition of 3% TFA, and samples were analyzed by HPLC.
(§1) Prior to Tm analyses, RNA samples were annealed in the appropriate buffer by heating to 75 °C and slowly cooling to room temperature. Depsipeptide/peptide was added to the annealed RNA and incubated at 4 °C for 20 min prior to carrying out the analysis. For analyses involving dry-down reaction mixtures, the Tm was determined by monitoring fluorescence increase upon melting of a fluorophore/quencher-labeled RNA duplex (5′-rCrGrArUrUrUrArGrCrG-/3IABkFQ/-3′ and 3′-rGrCrUrArArArUrCrGrC-FAM-5′) using a BioRad CFX Connect rtPCR instrument with a heating ramp of 1 °C/min and 20 μL final sample volumes. For analyses involving pure, synthetic compounds, the Tm of the RNA was determined by monitoring UV hyperchromicity at 260 nm using a Varian Cary Bio-100 spectrophotometer, with a heating ramp of 1 °C/min and 0.5- or 1-cm pathlength cells. The following RNA sequences were used: RNA duplex 1 = 5′-rCrGrCrUrArArArUrCrG-3′ and 5′-rCrGrArUrUrUrArGrCrG-3′; RNA duplex 2 = 5′-rArArArArUrUrUrArUrArUrUrArUrUrA-3′ and 5′-rUrArArUrArArUrArUrArArArUrUrUrU-3′; RNA duplex 3 = 5′-rArArCrGrUrArUrArCrGrUrU-3′ (palindromic); and H26a RNA = 5′-rArUrGrArGrUrArArCrCrGrUrArArGrGrUrGrArArArUrU-3′. RNA was present in each assay at a final concentration of 2.5 μM of the folded structure (2.5 μM each strand for duplex 1 and duplex 2, 5.0 μM palindromic strand for duplex 3, 2.5 μM strand for H26a RNA). Tm values were determined by nonlinear fitting of the melting curves using GraphPad Prism 8.2.1 for duplex 1 and H26a, or by finding the maximum of the first derivative of the curve using the Varian Cary Bio-100 software for duplex 2 and duplex 3.

[2] = tested on: RNA duplex 2 (5′-rArArArArUrUrUrArUrArUrUrArUrUrA-3′ and 5′-rUrArArUrArArUrArUrArArArUrUrUrU-3′); experiment: RNA thermal denaturation (Tm) by UV hyperchromicity, RNA duplex 2; settings: for RNA duplex 2 Tm: observed Tm with peptide/depsipeptide 100 µM, pH 7.0, RNA alone 33.7 ± 0.7, mean ± SD of 2-4 independent experiments; for RNA duplex 2 ΔTm: peptide/depsipeptide 100 μM, RNA 2.5 μM each strand, pH 7.0, 10 mM phosphate, 100 mM NaCl, mean of 2–4 replicates
Protocol: as §1, with “3. Both methods of determining the Tm gave similar values for a given denaturation curve.” for “3.”

[3] = tested on: H26a RNA (5′-rArUrGrArGrUrArArCrCrGrUrArArGrGrUrGrArArArUrU-3′); experiment: RNA thermal denaturation (Tm) by UV hyperchromicity, H26a RNA hairpin; settings: for H26a RNA Tm: observed Tm with peptide/depsipeptide 100 µM, pH 7.0, RNA alone 53.4 ± 0.5, mean ± SD of 2-4 independent experiments; for H26a RNA ΔTm: peptide/depsipeptide 100 μM, RNA 2.5 μM strand, pH 7.0, 10 mM phosphate, 100 mM NaCl, mean of 2–4 replicates
Protocol: as §1, with “3. Both methods of determining the Tm gave similar values for a given denaturation curve.” for “3.”

[4] = tested on: RNA duplex 3 (5′-rArArCrGrUrArUrArCrGrUrU-3′, palindromic); experiment: RNA thermal denaturation (Tm) by UV hyperchromicity, RNA duplex 3; settings: for RNA duplex 3 Tm: observed Tm with peptide/depsipeptide 100 µM, pH 7.0, RNA alone 48.6 ± 0.7, mean ± SD of 2-4 independent experiments; for RNA duplex 3 ΔTm: peptide/depsipeptide 100 μM, 5.0 μM palindromic strand, pH 7.0, 10 mM phosphate, 100 mM NaCl, mean of 2–4 replicates
Protocol: as §1, with “3. Both methods of determining the Tm gave similar values for a given denaturation curve.” for “3.”

[5] = pH 7.0, 10 mM phosphate, RNA alone 43.8 ± 0.4
[6] = 10 mM phosphate, pH 7.0, vs RNA alone at matched pH
[7] = pH 5.0, 10 mM acetate, RNA alone 41.5 ± 0.3
[8] = 10 mM acetate, pH 5.0, vs RNA alone at pH 5.0

Row | Molecule | changes in CD spectra of the RNA duplex upon addition (RNA duplex 1) | changes in CD spectra of the RNA duplex upon addition (RNA duplex 1; listed as Ac-Tyr-Gly-(Ala-Dab-Lys)4-NH2) | RNA duplex 1 Tm [1, 5] | RNA duplex 1 ΔTm [1, 6] | RNA duplex 2 Tm [2] | RNA duplex 2 ΔTm [2] | H26a RNA Tm [3] | H26a RNA ΔTm [3] | RNA duplex 3 Tm [4] | RNA duplex 3 ΔTm [4] | RNA duplex 1 Tm [1, 7] | RNA duplex 1 ΔTm [1, 8]
1 | CC(=O)N[C@@H](Cc1ccc(O)cc1)C(=O)NCC(=O)N[C@@H](C)C(=O)N[C@@H](CCN)C(=O)N[C@@H](CCCCN)C(=O)N[C@@H](C)C(=O)N[C@@H](CCN)C(=O)N[C@@H](CCCCN)C(=O)N[C@@H](C)C(=O)N[C@@H](CCN)C(=O)N[C@@H](CCCCN)C(N)=O (Ac-YGA[Dab]KA[Dab]KA[Dab]K-NH2) | physical association | – | – | – | – | – | – | – | – | – | – | –
2 | CC(=O)N[C@@H](Cc1ccc(O)cc1)C(=O)NCC(=O)N[C@@H](C)C(=O)N[C@@H](CCN)C(=O)N[C@@H](CCCCN)C(=O)N[C@@H](C)C(=O)N[C@@H](CCN)C(=O)N[C@@H](CCCCN)C(=O)N[C@@H](C)C(=O)N[C@@H](CCN)C(=O)N[C@@H](CCCCN)C(=O)N[C@@H](C)C(=O)N[C@@H](CCN)C(=O)N[C@@H](CCCCN)C(N)=O (Ac-YGA[Dab]KA[Dab]KA[Dab]KA[Dab]K-NH2) | – | physical association; also recorded: changes were observed in the CD spectra | – | – | – | – | – | – | – | – | – | –
3 | Aba-Arg-lac-Arg-lac-Arg-lac-Arg-lac-Arg-lac-Arg-lac-Arg-lac-Arg-lac-NH2 [compound 2] | – | – | 49.1 ± 0.7 °C | 5.3 °C | – | – | – | – | – | – | – | –
4 | Aba-Dab-lac-Dab-lac-Dab-lac-Dab-lac-Dab-lac-Dab-lac-Dab-lac-Dab-lac-NH2 [compound 6] | – | – | 44.2 ± 0.2 °C | 0.4 °C | 36.2 ± 0.1 °C | 2.6 °C | 53.9 ± 0.2 °C | 0.5 °C | 48.2 ± 0.1 °C | −0.4 °C | – | –
5 | Aba-Gly-Ala-Dab-Lys-Ala-Dab-Arg-lac-Dab-Lys-Ala-Dab-Lys-NH2 [compound 7] | – | – | 52.5 ± 0.3 °C | 8.7 °C | 41.8 ± 0.6 °C | 8.1 °C | 64.8 ± 0.1 °C | 11.4 °C | 60.6 ± 0.8 °C | 12.0 °C | – | –
6 | Aba-Gly-Ala-Dab-Lys-Ala-Dab-Dab-lac-Dab-Lys-Ala-Dab-Lys-NH2 [compound 11] | – | – | 48.7 ± 0.2 °C | 4.9 °C | – | – | – | – | – | – | – | –
7 | Aba-Gly-Ala-Dab-Lys-Ala-Dab-His-lac-Dab-Lys-Ala-Dab-Lys-NH2 [compound 8] | – | – | 48.9 ± 1.4 °C | 5.1 °C | – | – | – | – | – | – | 52.6 ± 0.2 °C | 11.1 °C
8 | Aba-Gly-Ala-Dab-Lys-Ala-Dab-Orn-lac-Dab-Lys-Ala-Dab-Lys-NH2 [compound 10] | – | – | 48.7 ± 1.2 °C | 4.9 °C | 41.8 ± 0.5 °C | 8.2 °C | 56.9 ± 0.1 °C | 3.5 °C | 51.1 ± 1.3 °C | 2.5 °C | – | –
9 | Aba-His-lac-His-lac-His-lac-His-lac-His-lac-His-lac-His-lac-His-lac-NH2 [compound 3] | – | – | 44.3 ± 1.0 °C | 0.5 °C | – | – | – | – | – | – | 46.1 ± 0.7 °C | 4.6 °C
10 | Aba-Lys-lac-Lys-lac-Lys-lac-Lys-lac-Lys-lac-Lys-lac-Lys-lac-Lys-lac-NH2 [compound 4] | – | – | 46.4 ± 0.1 °C | 2.6 °C | 35.2 ± 0.1 °C | 1.5 °C | 59.7 ± 0.6 °C | 6.3 °C | 52.5 ± 0.7 °C | 3.9 °C | – | –
11 | Aba-Orn-lac-Orn-lac-Orn-lac-Orn-lac-Orn-lac-Orn-lac-Orn-lac-Orn-lac-NH2 [compound 5] | – | – | 43.8 ± 0.9 °C | 0.0 °C | 34.6 ± 0.7 °C | 1.0 °C | 52.3 ± 0.6 °C | −1.1 °C | 49.1 ± 0.1 °C | 0.5 °C | – | –
